From US5238936A, “Trisubstituted triazines” (Adir et Compagnie, priority 1991, dated 1993)

Experiments:
line DC-3F/AD [1] = test: Flow cytometry: intracellular accumulation of adriamycin by cells of the line DC-3F/AD; assay type: cell-based, Chinese hamster; conditions: ADR 50 μM, 5 hours
Description: Also measured was the effect of the compounds on the intracellular concentration of the cytotoxic agent. In effect, the known compounds for reversing MDR act by increasing the intracellular concentration of cytotoxic agent. This effect is the consequence of inhibiting the action of gP 170 which is responsible for the efflux of the drug.
By measuring that fluorescence, it is thus possible to obtain a relative measurement of the intracellular concentration of ADR.
The cells 500×10^3 per ml were exposed simultaneously to ADR at a fixed concentration (50 μM) and to the tested compounds at various concentrations. After 5 hours' incubation, the intracellular accumulation of ADR was evaluated by FCM. […] The analysis of each of the samples was carried out on a total of 10,000 cells at a rate of 1,000 cells per second.
The results were presented in the form of linear histograms of the intracellular ADR fluorescence.
Expression of the results: for each of the histograms the mean fluorescence per channel (MEAN) was determined by the information system of the apparatus. For all experiments:
a negative control (cells without ADR) fixed the autofluorescence threshold.
a positive control (cells with ADR) determined the MEAN value=MN1.
the "test" tubes (cells with ADR and with compound) were used to determine, for each of the compounds and at each of the concentrations, the MEAN values=MN2.
The results are expressed in the form of variations from the mean fluorescence obtained for each of the "test" tubes (MN2) in relation to the mean fluorescence obtained with the positive control (MNl): VAR-MEAN=MN2-MN1. The parameter expressed is thus the increase in ADR fluorescence in the presence of the tested compounds.

Plasmodium falciparum = conditions: resistance to chloroquine; cited from earlier work
resistant line P/388/VCR = test: Antitumour activity in vivo: increase in antitumour activity of vincristine on murine leukaemia P 388/VCR; design: species or system murine; female B6D2Fl mice; conditions: with vincristine […] i.p., no compound: 146 ± 2
Description: This study was completed by an in vivo study, using a murine leukaemia resistant to vincristine (P/388/VCR) and using the compounds in association with vincristine.
The sensitive parent line P 388 (murine leukaemia) and the sub-line resistant to vincristine, P 388/VCR, were supplied by NCI (Frederick, USA). The tumour cells (10^6 cells) were inoculated on day 0 into the intraperitoneal cavity of female B6D2Fl mice (Iffa Credo, France) weighing from 18 to 20 g (groups of 8 to 10 animals).
Every day for 4 days, starting from day 1, the animals received: […]
30 to 60 minutes later, an administration by the i.p. route of 0.25 mg/kg of vincristine (used as a reference antitumour agent).
The tumour activity is expressed as follows: [formula]
The values are mean values obtained in independent experiments (± sem when n is greater than or equal to 3).

line DC-3F/AD [2] = test: Cytotoxicity (Microculture Tetrazolium Assay): reversal of resistance to actinomycin D, line DC-3F/AD; assay type: cell-based, Chinese hamster; conditions: 4 days
Description: The pharmacological study of the compounds of the present invention consisted first of all in an evaluation in vitro carried out on resistant cells. The parameter measured is the cytotoxicity of the antitumour drug, quantified in the absence and in the presence of the reversing compound.
The cells are distributed on microplates and exposed to the cytotoxic compounds (actinomycin D for line DC-3F/AD and adriamycin for line KB-Al) at 9 concentrations (2 by 2 series dilutions). The compounds tested for their capacity to reverse MDR are added at the same time as the cytotoxic agent.
The cells are then incubated for 4 days. […] The results are expressed as a reversion factor (RF): PG,29 [formula]

[3] = 50 mg/kg i.p. daily for 4 days, ± sem
[4] = 100 mg/kg i.p. daily for 4 days, ± sem

SMILES | VAR-MEAN (increase in ADR fluorescence), line DC-3F/AD (line DC-3F/AD [1]; 1.0 μM compound) | VAR-MEAN (increase in ADR fluorescence), line DC-3F/AD (line DC-3F/AD [1]; 5.0 μM compound) | VAR-MEAN (increase in ADR fluorescence), line DC-3F/AD (line DC-3F/AD [1]; 10 μM compound) | VAR-MEAN (increase in ADR fluorescence), line DC-3F/AD (line DC-3F/AD [1]; […] compound) | sensitivity of a chloroquine-resistant line (Plasmodium falciparum) | T/C % (resistant line P/388/VCR; [3]) [%] | T/C % (resistant line P/388/VCR; 75 mg/kg i.p. daily for 4 days) [%] | T/C % (resistant line P/388/VCR; [4]) [%] | Reversion factors (cytotoxicity) with the line DC-3F/AD (line DC-3F/AD [2]; 0.5 μM compound) | Reversion factors (cytotoxicity) with the line DC-3F/AD (line DC-3F/AD [2]; 1 μM compound) | Reversion factors (cytotoxicity) with the line DC-3F/AD (line DC-3F/AD [2]; 5 μM compound)
COc1ccc(CCN(C)CCCC(C#N)(c2ccc(OC)c(OC)c2)C(C)C)cc1OC (centres unmarked) [verapamil, reference compound] | 2.1 | 5.6 | 8.9 | 4.0 | restores the sensitivity of a resistant line | 164 | 177 |  |  |  | 
C=CCNc1nc(NCC=C)nc(N2CCC(NCC3c4ccccc4COc4ccccc43)CC2)n1 (racemic) [Example 19, 2,4-diallylamino-6-{4-[((R,S)-6,11-dihydro-dibenzo[b,e]oxepin-11-yl)methylamino]piperidin-1-yl}-1,3,5-triazine] | 13.1 | 25.5 | 25.3 | 22.6 |  | 167 ± 7 |  | 184 ± 7 | 3.8 | 63 | 2525
C=CCNc1nc(NCC=C)nc(N2CCC(NCC3c4ccccc4CCc4ccccc43)CC2)n1 [Example 3, 2,4-Diallylamino-6-{4-[(10,11-dihydro-5H-dibenzo[a,d]cyclohepten-5-yl)methylamino]piperidin-1-yl}-1,3,5-triazine] | 20.2 | 28.3 | 29.6 | 25.8 |  | 208 ± 23 |  | 193 ± 3 | 43 | 236 | 3187
C=CCNc1nc(NC)nc(N2CCC(NCC3c4ccccc4COc4ccccc43)CC2)n1 (racemic) [Example 28, 2-allylamino-4-methylamino-6-{4-[((R,S)-6,11-dihydro-dibenzo[b,e]oxepin-11-yl)methylamino]piperidin-1-yl}-1,3,5-triazine] | 4.3 | 16.8 | 21.5 | 12.8 |  | 170 |  | 171 |  | 18.1 | 600.4
C=CCNc1nc(NCC)nc(N2CCC(NCC3c4ccccc4CCc4ccccc43)CC2)n1 [Example 22, 2-allylamino-4-ethylamino-6-{4-[(10,11-dihydro-5H-dibenzo[a,d]cyclohepten-5-yl)methylamino]piperidin-1-yl}-1,3,5-triazine] | 15.1 | 23.1 | 24.9 | 21.9 |  | 159 |  | 165 | 32 | 177 | 2499
C=CCNc1nc(NCC=C)nc(N2CCC(NCC3c4ccccc4CCc4cc(OC)ccc43)CC2)n1 (racemic) [Example 31, 2,4-diallylamino-6-{4-[((R,S)-10,11-dihydro-5H-2-methoxydibenzo[a,d]cyclohepten-5-yl)methylamino]piperidin-1-yl)-1,3,5-triazine] | 9.4 | 30.8 |  | 26.6 |  | 159 |  | 177 | 3.1 | 85.9 | 1913.4
C=CCNc1nc(NCC=C)nc(N2CCC(NCC3c4ccccc4N(C)S(=O)(=O)c4cc(Cl)ccc43)CC2)n1 (racemic) [Example 21, 2,4-diallylamino-6-{4-[(8-chloro-10,10-dioxo-11-methyl-(R,S)-dibenzo[c,f]thiazepin-5-yl)methylamino]piperidin-1-yl}-1,3,5-triazine] | 8.1 | 22.8 | 24.1 | 21.1 |  | 154 |  | 148 | 1.2 | 18 | 2804
C=CCNc1nc(NCC=C)nc(N2CCC(NCC3c4ccccc4C=Cc4ccccc43)CC2)n1 [Example 11, 2,4-diallylamino-6-{4-[(5H-dibenzo[a,d]cyclohepten-5-yl)methylamino]piperidin-1-yl}-1,3,5-triazine] | 12.7 | 24.5 | 25.8 | 20.2 |  | 156 |  | 168 ± 15 | 2 | 26 | 1408
C=CCNc1nc(NCCC)nc(N2CCC(NCC3c4ccccc4CCc4ccccc43)CC2)n1 [Example 5, 2-allylamino-4-propylamino-6-{4-[(10,11-dihydro-5H-dibenzo[a,d]cyclohepten-5-yl)methylamino]piperidin-1-yl}-1,3,5-triazine] | 17.9 | 27.3 | 24.9 | 23.5 |  | 184 |  | 195 | 3.8 | 81 | 2753
